Data set [1] has as its target T1, native β2-AR in human bronchial smooth muscle cells (Homo sapiens, UniProt P07550).
T1 construct: human bronchial smooth muscle cells (that natively express β2-AR); host or cells: human bronchial smooth muscle cells
Kind of data set: Antagonism of cimaterol-induced 3H-cAMP accumulation in human bronchial smooth muscle cells. Format: cell-based. The following applies: cimaterol agonist, mean ± SEM. On the procedure: Human bronchial smooth muscle cells were obtained from Lonza (Basel, Switzerland) and grown in manufacturer media. Rat β-AR binding experiments (DNA from cDNA Resource Centre, Bloomsburg, PA, USA) were conducted by using transiently transfected CHO cells ([44]). […] Antagonist Kd values were calculated from a rightward shift of the agonist concentration response curve by using the Gaddum equation as previously described ([46]).
On the technique in general: Changes in cAMP serve as a functional read-out for many G protein-coupled receptors.

Another data set deals with T2, rat β1-AR (Rattus norvegicus, UniProt P18090).
T2 construct: host or cells: CHO cells, transient transfection
T2 sequence (P18090 whole entry): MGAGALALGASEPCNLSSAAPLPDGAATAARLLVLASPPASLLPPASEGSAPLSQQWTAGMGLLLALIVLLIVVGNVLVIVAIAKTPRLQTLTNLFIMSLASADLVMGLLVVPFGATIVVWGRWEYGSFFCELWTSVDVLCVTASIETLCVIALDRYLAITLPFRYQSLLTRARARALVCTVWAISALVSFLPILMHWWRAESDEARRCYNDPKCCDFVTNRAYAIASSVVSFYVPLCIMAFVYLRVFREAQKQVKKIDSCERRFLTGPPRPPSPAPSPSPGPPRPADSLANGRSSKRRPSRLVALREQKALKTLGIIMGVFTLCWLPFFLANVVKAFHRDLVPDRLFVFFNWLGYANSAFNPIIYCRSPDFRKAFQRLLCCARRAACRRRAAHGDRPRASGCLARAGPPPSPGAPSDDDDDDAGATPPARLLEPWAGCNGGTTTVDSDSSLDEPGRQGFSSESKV
Kind of data set: 3H-CGP12177 whole-cell binding in transiently transfected CHO cells. The following applies: for Rat β1 vs. β2 selectivity Kd,ratβ2/Kd,ratβ1: from 3H-CGP12177 whole-cell binding; for Kd: transiently transfected CHO cells, mean ± SEM, read-out: Rat β1-AR Log Kd (converted). On the procedure: (§1) Human bronchial smooth muscle cells were obtained from Lonza (Basel, Switzerland) and grown in manufacturer media. Rat β-AR binding experiments (DNA from cDNA Resource Centre, Bloomsburg, PA, USA) were conducted by using transiently transfected CHO cells ([44]).
(§2) Propranolol (10 μM) defined nonspecific binding. Kd values were derived from IC50 values by using the Cheng-Prusoff equation as previously described ([11]).

In another data set the target is T3, rat β2-AR (Rattus norvegicus, UniProt P10608).
T3 construct: host or cells: CHO cells, transient transfection
T3 sequence (P10608 whole entry): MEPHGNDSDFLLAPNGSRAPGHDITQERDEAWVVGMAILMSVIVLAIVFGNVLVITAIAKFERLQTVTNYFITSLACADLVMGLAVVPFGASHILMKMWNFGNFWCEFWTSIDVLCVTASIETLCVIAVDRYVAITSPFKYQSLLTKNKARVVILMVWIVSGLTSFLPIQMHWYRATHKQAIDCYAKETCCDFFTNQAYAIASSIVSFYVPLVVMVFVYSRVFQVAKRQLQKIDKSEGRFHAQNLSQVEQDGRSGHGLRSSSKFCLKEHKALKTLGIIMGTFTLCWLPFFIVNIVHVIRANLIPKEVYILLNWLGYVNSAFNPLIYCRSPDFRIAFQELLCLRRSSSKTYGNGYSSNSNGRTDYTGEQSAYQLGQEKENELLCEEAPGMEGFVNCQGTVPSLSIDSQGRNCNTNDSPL
The description is as above. The following applies: transiently transfected CHO cells, mean ± SEM; cells marked ^a are apparent log Kd; read-out: Rat β2-AR Log Kd (converted). On the procedure:
as §1, §2

The subject of data set [2] is HR (β1) and HQC (β2) in conscious rats. Kind of data set: In vivo β1- vs. β2-selectivity, oral administration, conscious rats (isoprenaline responses). More on the design: species or system rat. The following applies: for Effect on basal and isoprenaline-stimulated HR after oral gavage: lightly sedated rats dosed by oral gavage, measured once fully recovered. As to the method:
Adult male Sprague-Dawley rats, weighing 300−400 g, were chronically instrumented with pulsed Doppler flow probes and intravascular catheters for cardiovascular monitoring and drug administration in a 2-stage surgical protocol as described ([51]). Surgery was performed under general anesthesia (fentanyl and medetomidine, 300 μg/kg of each, i.p.), with reversal and postoperative analgesia provided by atipamezole (1 mg/kg, s.c.) and buprenorphine (0.02 mg/kg, s.c.). Experiments were performed with animals that were fully conscious and unrestrained in home cages and given free access to food and water. Cardiovascular variables were recorded by using a customized, computer-based system (Instrument Development Engineering Evaluation, Maastrich Instruments Bv, Maastrich, The Netherlands) with raw data sampled every 2 ms. Hindquarters vascular conductance (HQC) was calculated as Doppler shift (flow)/mean arterial pressure.
Experiments ran over 3 consecutive days. Lightly sedated rats (propofol at 0.1–0.2 ml of 10 mg/ml, i.v.) that were instrumented for cardiovascular monitoring were administered an oral dose of NDD-825.HCl (1 mg/kg on d 1, 3 mg/kg on d 2, 10 mg/kg on d 3; 10 ml/kg in water) by oral gavage. Each day, responses to isoprenaline infusions were monitored before and at 0.5–1.5 and 3–4 h after oral NDD-825.HCl administration.
Isoprenaline responses shown are absolute values for HR and HQC before the first dose of isoprenaline (baseline) and during the third minute of infusion of each dose. Values at baseline and during the highest isoprenaline dose were tested for statistical significance by using a nonparametric ANOVA test with correction for repeat measures [Quade test ([52])]. A value of P < 0.05 was taken as significant.

Data set [3] in a line: Lipophilicity (chromatographic logD). Format: physicochemical. The following applies: octanol/water, estimated from chromatographic retention. As to the method: Octanol–water partition coefficient values (logD) of NDD-713 and -825 were estimated as described in Lombardo et al. ([49]) by correlation of the chromatographic retention properties of compounds against the characteristics of standard compounds with known partition coefficient values. Studies were carried out by CDCO.

Another data set deals with T4, human β3-AR (Homo sapiens, UniProt P13945).
T4 construct: expressed in transfected cells
T4 sequence (P13945 whole entry): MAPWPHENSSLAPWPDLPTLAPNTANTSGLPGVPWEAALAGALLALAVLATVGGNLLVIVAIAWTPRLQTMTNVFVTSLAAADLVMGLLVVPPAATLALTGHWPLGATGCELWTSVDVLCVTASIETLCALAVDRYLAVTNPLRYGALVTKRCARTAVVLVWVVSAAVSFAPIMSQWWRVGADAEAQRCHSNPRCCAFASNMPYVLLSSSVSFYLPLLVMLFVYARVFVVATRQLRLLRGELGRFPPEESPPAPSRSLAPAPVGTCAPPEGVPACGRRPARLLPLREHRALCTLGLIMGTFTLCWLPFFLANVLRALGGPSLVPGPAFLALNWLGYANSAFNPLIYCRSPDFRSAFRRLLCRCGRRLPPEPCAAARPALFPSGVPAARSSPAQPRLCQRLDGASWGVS
The experiment in a line: Radioligand binding at human β3-AR. As to the method:
Chinese hamster ovary (CHO) cells that stably express human β1-ARs (CHO-β1: 1146 fmol/mg protein), human β2-ARs (CHO-β2: 466 fmol/mg protein), or human β3-ARs (CHO-β3: 790 fmol/mg protein) were grown as previously described ([11]). Human bronchial smooth muscle cells were obtained from Lonza (Basel, Switzerland) and grown in manufacturer media. Rat β-AR binding experiments (DNA from cDNA Resource Centre, Bloomsburg, PA, USA) were conducted by using transiently transfected CHO cells ([44]).
Confluent cells were examined (96-well plates, 2 h incubation at 37°C) as previously described ([11]) with ^3H-CGP12177 at 0.43–3.03 nM. Propranolol (10 μM) defined nonspecific binding. Kd values were derived from IC50 values by using the Cheng-Prusoff equation as previously described ([11]).

In another data set the target is hERG channels (Homo sapiens, UniProt Q12809). The experiment in a line: hERG automated patch-clamp electrophysiology.
Chain of hERG channels (Q12809 whole entry): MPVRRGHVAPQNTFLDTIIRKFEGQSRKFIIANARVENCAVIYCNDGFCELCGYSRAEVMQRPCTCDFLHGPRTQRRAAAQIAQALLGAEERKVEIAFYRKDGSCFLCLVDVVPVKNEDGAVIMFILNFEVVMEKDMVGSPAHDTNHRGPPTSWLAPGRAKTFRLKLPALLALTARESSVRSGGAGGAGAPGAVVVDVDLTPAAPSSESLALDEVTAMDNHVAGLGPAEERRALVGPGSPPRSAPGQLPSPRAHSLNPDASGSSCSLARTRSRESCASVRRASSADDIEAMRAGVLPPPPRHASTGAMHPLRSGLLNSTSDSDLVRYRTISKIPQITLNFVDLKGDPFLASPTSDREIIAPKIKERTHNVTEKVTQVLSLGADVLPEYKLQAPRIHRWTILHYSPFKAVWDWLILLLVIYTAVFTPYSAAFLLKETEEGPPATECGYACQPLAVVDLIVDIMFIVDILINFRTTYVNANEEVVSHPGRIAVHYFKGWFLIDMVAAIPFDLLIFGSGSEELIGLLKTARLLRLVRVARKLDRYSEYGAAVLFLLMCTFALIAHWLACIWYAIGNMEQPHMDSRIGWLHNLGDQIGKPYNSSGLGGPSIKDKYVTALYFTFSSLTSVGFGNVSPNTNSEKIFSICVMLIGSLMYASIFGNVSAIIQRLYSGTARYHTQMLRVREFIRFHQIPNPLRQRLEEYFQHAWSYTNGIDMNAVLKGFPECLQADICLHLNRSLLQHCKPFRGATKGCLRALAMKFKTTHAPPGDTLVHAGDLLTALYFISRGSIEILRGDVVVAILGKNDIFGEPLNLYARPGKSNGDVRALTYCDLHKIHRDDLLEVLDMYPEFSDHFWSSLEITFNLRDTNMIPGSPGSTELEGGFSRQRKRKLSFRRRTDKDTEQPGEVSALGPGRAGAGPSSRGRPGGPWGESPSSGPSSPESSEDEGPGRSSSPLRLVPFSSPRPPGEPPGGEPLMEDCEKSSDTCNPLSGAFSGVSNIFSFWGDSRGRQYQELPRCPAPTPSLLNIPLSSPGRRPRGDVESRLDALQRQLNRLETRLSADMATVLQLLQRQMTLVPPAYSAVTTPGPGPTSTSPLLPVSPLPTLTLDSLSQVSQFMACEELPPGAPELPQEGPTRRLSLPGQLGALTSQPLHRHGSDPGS
The next data set deals with T5, CYP2C19 (Homo sapiens, UniProt P33261).
T5 construct: in human liver microsomes; tissue batch 0910251; host or cells: human liver microsomes
T5 sequence (P33261 whole entry): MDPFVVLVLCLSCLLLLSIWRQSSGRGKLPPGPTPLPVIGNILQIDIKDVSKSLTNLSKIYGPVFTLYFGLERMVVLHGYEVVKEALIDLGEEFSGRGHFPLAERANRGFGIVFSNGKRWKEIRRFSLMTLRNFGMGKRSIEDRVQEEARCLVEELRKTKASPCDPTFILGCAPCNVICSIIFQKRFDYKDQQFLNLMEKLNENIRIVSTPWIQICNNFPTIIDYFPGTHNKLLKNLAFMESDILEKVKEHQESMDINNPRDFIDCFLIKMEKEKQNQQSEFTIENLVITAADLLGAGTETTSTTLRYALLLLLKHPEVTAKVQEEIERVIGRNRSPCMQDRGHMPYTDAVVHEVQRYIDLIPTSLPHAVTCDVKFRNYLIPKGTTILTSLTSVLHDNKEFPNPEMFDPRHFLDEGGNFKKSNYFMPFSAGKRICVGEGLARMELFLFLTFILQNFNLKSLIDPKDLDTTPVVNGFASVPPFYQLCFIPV
Kind of data set: P450 inhibition in human liver microsomes. It is filed as in vitro ADME. The following applies: 0.25–20 μM, hydrochloride salts used. As to the method: (§3) Concentrations of NDD-713.HCl and -825.HCl (0.25–20 μM) were incubated in triplicate (37°C for 4–40 min) with substrates specific for individual P450 isoforms (see Supplemental Data for full details) in human liver microsomes (batch 34689 for CYP1A2 and CYP3A4; batch 0910251 for CYP2C9, CYP2C19, and CYP2D6) at protein concentrations of 0.4 mg/ml (CYP1A2, CYP2C9, CYP2D6 and CYP3A4/5) or 1.0 mg/ml (CYP2C19) and a total organic solvent concentration <1%. Reaction was initiated by addition of NADPH-regenerating system and samples were quenched by addition of ice-cold acetonitrile, which contained 0.15 μg/ml diazepam as an internal standard, before determination of the concentration of specific metabolites by LC-MS. Compound IC50 values (and positive control) for each P450 isoform was assessed according to %reduction in formation of the specific metabolite (maximal metabolite formation occurring in the absence of inhibitor). […] Control samples were included to confirm that the LC-MS assay was not affected by test compounds (and potential metabolites). Studies were carried out by CDCO.
In general terms: Liver microsomes are a subcellular fraction often used to study metabolism.

A further data set has as its target T6, CYP1A2 (Homo sapiens, UniProt P05177).
T6 construct: in human liver microsomes (batch 34689 for CYP1A2 and CYP3A4; batch 0910251 for CYP2C9, CYP2C19, and CYP2D6); tissue batch 34689; host or cells: human liver microsomes
Kind of data set: P450 inhibition in human liver microsomes. Format: in vitro ADME. The following applies: 0.25–20 μM, hydrochloride salts used. On the procedure: as §3

The next data set concerns the target T7, CYP2C9 (Homo sapiens, UniProt P11712).
T7 construct: in human liver microsomes; tissue batch 0910251; host or cells: human liver microsomes
The experiment in a line: P450 inhibition in human liver microsomes. It is filed as in vitro ADME. The following applies: 0.25–20 μM, hydrochloride salts used. On the procedure: as §3

The test system of another data set is CYP3A4/5. The experiment in a line: P450 inhibition in human liver microsomes. It is filed as in vitro ADME. The following applies: 0.25–20 μM, hydrochloride salts used. As to the method: as §3
Where [4] appears, read: pH 3, chromatographic estimate, read-out: Distribution coefficient, pH 3 (gLogDpH 3).
Where [5] appears, read: pH 7.4, chromatographic estimate, read-out: Distribution coefficient, pH 7.4 (gLogDpH 7.4).

Where two headings read alike, the source gives them in different places. Where only a bound is given, the exact number is not on record here.

As a reminder, the IC50 is the concentration that gives 50% inhibition.

T6 sequence (P05177 whole entry): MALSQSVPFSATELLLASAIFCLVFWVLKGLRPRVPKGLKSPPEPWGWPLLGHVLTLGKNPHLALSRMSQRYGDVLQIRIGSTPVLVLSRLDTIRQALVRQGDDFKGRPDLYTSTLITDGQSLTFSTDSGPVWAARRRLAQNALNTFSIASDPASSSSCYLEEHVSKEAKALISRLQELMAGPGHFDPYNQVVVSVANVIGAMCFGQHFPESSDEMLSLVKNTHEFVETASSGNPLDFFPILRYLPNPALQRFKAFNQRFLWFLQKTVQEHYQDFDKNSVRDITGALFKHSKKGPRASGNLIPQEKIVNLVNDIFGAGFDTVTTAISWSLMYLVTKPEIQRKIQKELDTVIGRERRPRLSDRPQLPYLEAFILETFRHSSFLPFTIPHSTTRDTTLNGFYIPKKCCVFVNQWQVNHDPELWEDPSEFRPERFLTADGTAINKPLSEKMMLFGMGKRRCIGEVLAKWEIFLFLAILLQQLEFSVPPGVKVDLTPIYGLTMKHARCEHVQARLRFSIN
T1 sequence (P07550 whole entry): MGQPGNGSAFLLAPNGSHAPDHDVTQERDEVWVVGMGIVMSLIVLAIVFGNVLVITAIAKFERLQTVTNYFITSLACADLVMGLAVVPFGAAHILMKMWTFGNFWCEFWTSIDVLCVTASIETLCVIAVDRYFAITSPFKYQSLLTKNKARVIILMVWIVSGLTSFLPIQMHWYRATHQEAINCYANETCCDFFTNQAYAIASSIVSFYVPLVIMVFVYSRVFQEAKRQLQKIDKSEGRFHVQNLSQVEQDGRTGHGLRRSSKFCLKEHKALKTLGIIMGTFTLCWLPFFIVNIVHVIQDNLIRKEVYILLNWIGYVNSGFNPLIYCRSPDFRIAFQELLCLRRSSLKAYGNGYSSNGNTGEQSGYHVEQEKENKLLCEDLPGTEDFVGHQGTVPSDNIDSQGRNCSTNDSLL
T7 sequence (P11712 whole entry): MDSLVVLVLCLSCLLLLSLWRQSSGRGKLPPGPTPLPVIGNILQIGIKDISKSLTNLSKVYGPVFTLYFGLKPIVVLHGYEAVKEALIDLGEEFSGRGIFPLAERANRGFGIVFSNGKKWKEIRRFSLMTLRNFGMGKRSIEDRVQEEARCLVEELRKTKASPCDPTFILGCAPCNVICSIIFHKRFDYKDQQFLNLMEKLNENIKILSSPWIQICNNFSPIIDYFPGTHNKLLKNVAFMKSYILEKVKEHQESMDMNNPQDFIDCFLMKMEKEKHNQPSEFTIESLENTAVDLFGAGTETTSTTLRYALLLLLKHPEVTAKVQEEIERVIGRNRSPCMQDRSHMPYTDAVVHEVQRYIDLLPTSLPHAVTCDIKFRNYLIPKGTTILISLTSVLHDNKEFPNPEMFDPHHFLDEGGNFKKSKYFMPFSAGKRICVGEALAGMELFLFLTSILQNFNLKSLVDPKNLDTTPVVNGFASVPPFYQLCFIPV
Procedure for hERG channels: In addition, the potential of the compound to inhibit hERG channels was tested by using an automated patch-clamp electrophysiological assay (BioFocus, Cambridge, United Kingdom; using the Precision hERG-HEK recombinant cell line from on an Ion Works Quattro automated electrophysiology platform; Millipore, Billerica, MA, USA).

Consider `NC(=O)c1ccc(OCCNC[C@H](O)COc2ccc3c(c2)OC[C@@H](COCC2CC2)O3)cc1` [NDD-713], for which the Kd in [1] was 3.39 µM; at rat β1-AR it was 0.00851 µM; at rat β2-AR, 18.6 µM. Moreover, on rat β1-AR, the “Rat β1 vs. β2 selectivity Kd,ratβ2/Kd,ratβ1” value is listed as 2188. The “Effect on basal and isoprenaline-stimulated HR after oral gavage” value in data set [2] is “caused a reduction of basal and isoprenaline-stimulated HR”. Further, the chromatographic logD was 1.7 in data set [3] (setting [4]) and 2.3 in data set [3] (setting [5]). Also, the “Affinity at human β3-AR” value at human β3-AR is “so low that accurate measurements were not possible”. Besides, the IC50 is > 10 µM on hERG channels; > 20 µM on CYP2C19; > 20 µM on CYP1A2; > 20 µM at CYP2C9; > 20 µM in the data set on CYP3A4/5.
On to `O=C1NCc2cc(OCCNC[C@H](O)COc3ccc4c(c3)OC[C@@H](COCC3CC3)O4)ccc21` [NDD-825], for which the figures for the Kd (in data set [1]; at rat β1-AR; on rat β2-AR) were 1.35 µM, 0.00427 µM and 13.2 µM, respectively. The “Rat β1 vs. β2 selectivity Kd,ratβ2/Kd,ratβ1” value at rat β1-AR is on record as 3090. For the same compound, in [2] (conscious rats, oral gavage 1 mg/kg (d 1), n = 3), the “Effect on basal HR” value is “small but significant lowering of basal HR”. In addition, the “Lowering of basal HR and reduction in isoprenaline-stimulated HR” value in [2] (conscious rats, oral gavage 3 and 10 mg/kg on subsequent days, compared with 1 mg/kg) is recorded as “more pronounced”. For the same compound, in data set [2] (conscious rats, oral gavage, any dose level (1, 3, 10 mg/kg)), the “Changes in HQC responses to isoprenaline” value is on record as “No significant changes”. Also, in data set [2], the “Effect on basal and isoprenaline-stimulated HR after oral gavage” value is “caused a reduction of basal and isoprenaline-stimulated HR”. Besides, the chromatographic logD in data set [3] (setting [4]) was 1.5; in [3] (setting [5]), 2. For the same compound, the “Affinity at human β3-AR” value on human β3-AR is recorded as “so low that accurate measurements were not possible”. Further, the IC50 was > 10 µM against hERG channels; > 20 µM at CYP2C19; > 20 µM at CYP1A2; > 20 µM at CYP2C9; > 20 µM in the data set on CYP3A4/5.

(Values after publication PMC5471521, “Novel selective β1-adrenoceptor antagonists for concomitant cardiovascular and respiratory disease” (The FASEB Journal, 2017).)
